# Source: patent publication US20240148745A1, “COMPOUNDS FOR USE IN PROGRESSIVE MULTIPLE SCLEROSIS” (FONDAZIONE CENTRO SAN RAFFAELE, priority 2021, published 2024)
# Structures can show the parent of a compound that is named as a salt.
# System: mouse cortical neurons
# Experiment: Morphological integrity evaluation, NMDA 8 μM (MAP2 neurite length and branching)
# Assay type: cell-based
# Details: 3 h pre-treatment, NMDA 8 μM 24 h; Z>0.5 criteria
# Method: Apart of viability/metabolic readout in NMDA-mediated neurotoxicity assay, a neuronal structural integrity was evaluated by MAP2 staining. Mouse cortical neurons (14 DIV) cultured in MW96 plates were fixed with 4% paraformaldehyde (PFA). Fixed cells were incubated with blocking solution (PBS 1×, donkey serum 5%, Triton 0.1%) for 1-hour, primary antibody (rabbit α-MAP2, 1:250, Millipore) was applied in the same solution overnight at +4° C. […] Nuclei were stained with 4′-6-diamidino-2-phenylindole (DAPI, Roche). Microscopy was performed using ArrayScan™XTI (ThermoFisher) imaging platform. 15 images per well were acquired and analyzed by CellProfiler. Total neurite length and the total number of non-trunk branches were analyzed. Total neurite length and the total number of branching were evaluated from 15 images/well, each compound or control was tested in triplicates. The total neurite length and total number of branches were converted to a standardized Z-score using formula: Xij=((Xij−μ)/σ), where xij is the raw measurement of the compound located in well (i, j), and μ and σ are, respectively, the mean and the standard deviation of all measurements of the plate.^31
# The morphological integrity of mouse cortical neurons upon chronic 24 h NMDA (8 μM) exposure with compounds pre-treatment (3 h) in preventive regimen was evaluated. Control (basal), DMSO, N-acetylcysteine (NAC) served as positive controls, while staurosporine and NMDA were negative controls.
row,Compound,preservation of neurite length and network integrity (branching)
1,CN=C(NS(=O)(=O)c1ccc(Cl)cc1)N1C[C@H](c2ccccc2)C(c2ccc(Cl)cc2)=N1 [Ibipinabant],preserved both neurite length and the network integrity (branching)
2,O=C(O)[C@H](CC(=O)N1C[C@H]2CCCC[C@H]2C1)Cc1ccccc1 [Mitiglinide],preserved both neurite length and the network integrity (branching)
3,COc1ccsc1CNCC[C@@]1(c2ccccn2)CCOC2(CCCC2)C1 [Oliceridine],preserved both neurite length and the network integrity (branching)
4,CC[C@H](CO)Nc1nc(NCc2ccccc2)c2ncn(C(C)C)c2n1 [Seliciclib],preserved both neurite length and the network integrity (branching)
5,CN1Cc2cc(Cl)ccc2-n2c(nnc2[C@H]2CC[C@H](Oc3ccccn3)CC2)C1 [RG7314],preserved both neurite length and the network integrity (branching)
6,NC(=O)c1ccc(N(C(N)=O)c2c(F)cccc2F)nc1-c1ccc(F)cc1F [VX-702],preserved both neurite length and the network integrity (branching)
7,CNC(=O)c1ccc2cc([C@@]3(O)CCn4cncc43)ccc2c1 [Orteronel],preserved both neurite length and the network integrity (branching)
8,N[C@@H](Cc1ccccc1)C(=O)O [L-Phenylalanine],preserved both neurite length and the network integrity (branching)
9,Cc1cc(F)c(C(=O)Nc2cccc(-c3nncn3C(C)C)n2)cc1-n1cnc(C2CC2)c1 [GS-4997],preserved both neurite length and the network integrity (branching)
10,C[C@@H]1COC(Nc2ccc3ncnc(Nc4ccc(OCc5nccs5)c(Cl)c4)c3c2)=N1 [Varlitinib],preserved both neurite length and the network integrity (branching)
11,CNC(=O)c1ccc(-c2cnc3ncc(Cc4ccc5ncccc5c4)n3n2)cc1F [Capmatinib],preserved both neurite length and the network integrity (branching)
12,CC[C@H](NC(=O)c1cc(-c2ccccc2)nc2ccccc12)c1ccccc1 [AZD-7624],preserved both neurite length and the network integrity (branching)
13,O=C(O)CCn1c2c(c3ccccc31)C[C@H](NS(=O)(=O)c1ccc(F)cc1)CC2 [Ramatroban],preserved both neurite length and the network integrity (branching)
14,O=c1sn(-c2cccc3ccccc23)c(=O)n1Cc1ccccc1 [Tideglusib],preserved both neurite length and the network integrity (branching)
15,CC(C)(C)S(=O)(=O)N[C@H]1CC[C@H](C(=O)Nc2ccc(C(F)(F)F)cn2)CC1 [Velneperit],preserved both neurite length and the network integrity (branching)
16,CC(=O)N(C)c1cccc(-c2ccnc3c(C(=O)c4cccs4)cnn23)c1 [Indiplon],preserved both neurite length and the network integrity (branching)

# System: rat oligodendrocyte progenitor CG4 line
# Experiment: Differentiation assay on rat oligodendrocyte progenitor CG4 line (HCS, mCherry+)
# Assay type: cell-based
# Details: secondary screen of 49 selected compounds, 1 μM, 5 days
# Source text: Primary validation on CG4 line toxicity and differentiation. An innovative OPC line was developed for fast and reliable high content screening (HCS) of small compounds inducing oligodendrocyte differentiation. The line was genetically engineered by lentiviral transduction of rat CG4 cells (PubMed=1613821; DOI=10.1002/jnr.490310125; Louis J. C., Magal E., Muir D., Manthorpe M., Varon S.; CG-4, a new bipotential glial cell line from rat brain, is capable of differentiating in vitro into either mature oligodendrocytes or type-2 astrocytes. J. Neurosci. Res. 31:193-204(1992) to express mCherry fluorescent reporter (Evercooren, Anne & Avellana-Adalid, V. & Vitry, Sandrine & Nait-Oumesmar, Brahim & Lachapelle, Francois. (1997). Expansion of Oligodendrocyte Progenitors for Myelin Repair. 10.1007/978-1-4615-5949-8_21) in mature oligodendrocytes only, and EGFP at all stage of the oligodendroglial lineage: both the generation of mature oligodendrocytes (wmNl-mCherry) and the morphological changes associated with differentiation (CMV-EGFP) can be therefore monitored in a single assay. mCherry expression occurred only in O4+/GalC+ differentiated oligodendrocytes and GFP was ubiquitously expressed at all developmental stages. The line so obtained was validated using compounds with well-established effects on oligodendrocyte differentiation (cAMP and T3). Cell-based assay was standardized on the HCS platform (ArrayScanXTI, Brain and Spine Institute (Paris), validating the pro-differentiation effects of clemastine^27 and 9cis-retinoic acid.^28 For HCS validation of 274 compounds identified through in silico screen, double-fluo CG4 line cells were plated in 96 well-plates, 6500 cells/cm^2 and left for 24 h in proliferation. The other day, compounds were added (1 μM) for next 5 days of differentiation, with ⅔ medium changed after 3 days. 9-cis Retinoic Acid (9cis-RA; […]) served as a positive control, negative controls were basal (N1) medium and vehicle (basal+0.1% DMSO). Each compound was tested in triplicate and were imaged with ArrayScanXTI system (35 fields/well) after 5 days of differentiation.
# FIG. 4 provides a schematic representation of High Content Screening (HCS) validation of the 274 compounds identified through in silico screening using CG4 line. […] In addition, the whole short list of 160 non-toxic compounds were screened using the CG4 high content phenotypic assay to further confirm the data from primary screening and to potentially select additional compounds with pro-myelinating activities. From this screening of the short list, 49 hit compounds were identified that increase differentiation either of CG4 cells or primary OPCs (FIG. 6).
row,Compound,CG4 differentiation compared with 9cis-RA positive control
1,CN(C(=O)C(c1ccccc1)c1ccccc1)[C@H](CN1CC[C@H](O)C1)c1ccccc1 [ASIMADOLINE],promoting differentiation significantly higher than 9cis-RA positive control
2,CNC(=O)c1cc(Oc2ccc(NC(=O)Nc3cc(C(C)(C)C)nn3-c3ccc4ncccc4c3)c(F)c2)ccn1 [REBASTINIB],promoting differentiation significantly higher than 9cis-RA positive control
3,O=C1NC(=O)C(c2cnc3ccccn23)=C1c1cn2c3c(cc(F)cc13)CN(C(=O)N1CCCCC1)CC2 [LY-2090314],promoting differentiation significantly higher than 9cis-RA positive control
4,"Cc1cc(Oc2ccc3nc(COc4ccc(CC5SC(=O)NC5=O)cc4)n(C)c3c2)cc(C)c1N (stereo not drawn) [Efatutazone hydrochloride, Efatutazone Hydrochloride]",promoting differentiation significantly higher than 9cis-RA positive control
5,Cc1cncc(CN2CCC(=C3c4ccc(Cl)cc4CCc4cccnc43)CC2)c1 [Rupatadine],promoting differentiation significantly higher than 9cis-RA positive control
6,C[C@]12CCC(=O)C[C@@H]1CC[C@@H]1[C@@H]2CC[C@]2(C)[C@@H](O)CC[C@@H]12 [STANOLONE],promoting differentiation significantly higher than 9cis-RA positive control
7,Cc1ccc(C(=O)NC2CC2)cc1-n1ncc(C(=O)c2cccc(C#N)c2)c1N [Acumapimod],promoting differentiation significantly higher than 9cis-RA positive control
8,C[N+](C)(C)CCOP(=O)([O-])OC[C@H](O)CO [CHOLINE ALFOSCERATE],promoting differentiation significantly higher than 9cis-RA positive control
9,CN(C(=O)c1ccc(F)cc1C(F)(F)F)C1CCN(c2nnc(-c3ccnn3C)c3ccccc23)CC1 [Taladegib],promoting differentiation significantly higher than 9cis-RA positive control
10,"Cc1cc(Nc2cc(CN3CCOCC3)c3nc(C)c(Cc4ccc(Cl)cc4F)n3n2)n[nH]1 [GANDOTINIB, Gandotinib]",promoting differentiation significantly higher than 9cis-RA positive control
11,COCCOc1cnc2ccn([C@H](C)c3nnc4c(F)cc(-c5cnn(C)c5)cn34)c(=O)c2c1 [AMG-337],promoting differentiation significantly higher than 9cis-RA positive control
12,O=c1oc2c(O)c(O)cc3c(=O)oc4c(O)c(O)cc1c4c23 [Ellagic Acid],promoting differentiation significantly higher than 9cis-RA positive control
13,CCCc1nc(C(F)(F)F)ccc1/C=C/C(=O)N[C@H](C)c1cc(F)c(NS(C)(=O)=O)c(F)c1 [PAC-14028],promoting differentiation significantly higher than 9cis-RA positive control
14,O=C(O)Cn1c2c(c3cc(F)ccc31)CN(C(=O)c1cccc3ccccc13)CC2 [SETIPIPRANT],promoting differentiation significantly higher than 9cis-RA positive control
